Where a SMILES comes first, the peptide text is derived from it. [ ]: non-standard residue; d: D form. The star is where a group is joined. X1 = Cc1ccc(Nc2ncc3c(n2)N(C)C(=O)N(c2cc(C(=O)*)ccc2C)C3)cn1; Aib = CC(C)(N)C(=O)O
Experiments:
[1] = biological target: T1, Lck (Homo sapiens, UniProt P06239); assay: Biochemical IC50 on Lck at Km and 1 mM ATP
T1 construct: purchased Reaction Biology Corp
Description: (§1) Full panel kinase profiling and kinase IC50 measurement were performed by using Reaction Biology Corp. (San Diego, USA).

[2] = system: Lck (Y394); assay: Western blot of p-Lck (Y394) in anti-CD3-treated Jurkat cells; assay type: cell-based; conditions: anti-CD3-treated Jurkat T cells, 10, 50, or 100 μM, 30 min
Description: Figure 6. Effect of 7a on the Lck (Y394) activation in anti-CD3-treated Jurkat cells. After treatment with CD3 antibody for coating in plates, cells were seeded and then treated with various concentrations of 7a (10, 50, or 100 μM) or A770041 (1 μM) used as a positive control. The phosphorylation of Lck tyrosine in Jurkat cells was activated by anti-CD3 mAb. Total cellular protein was resolved by SDS-PAGE, transferred to PVDF membranes, and detected with specific p-Lck (Y394) antibody. β-Actin was used as an internal control.
Jurkat cells were purchased from the Korea Cell Line Bank (Seoul, Republic of Korea) and maintained in RPMI-1640 medium containing 10% FBS, streptomycin sulphate, penicillin, HEPES, and sodium bicarbonate in a 5% CO2 atmosphere at 37 °C. Jurkat cells were stimulated with 1 μg/ml of plate-bound anti-CD3 mAb (clone HIT3a, BD Bioscience) and then incubated with KITS 1–001 (10, 50, or 100 μM) for 30 min.
The protein of Jurkat cells was extracted using a PRO-PREP (Intron Biotechnology, Seoul, Republic of Korea). The protein concentration was determined using Bio-Rad protein assay reagent according to the manufacturer’s instruction and BSA (Bio-Rad, Hercules, CA, USA) was used as a standard for quantification. […] The membranes were analysed using an enhanced chemiluminescence (ECL) substrate and imaged by LAS-4000 luminescent image analyser (FUJIFILM, Tokyo, Japan).

[3] = biological target: T2, ACK1 (Homo sapiens, UniProt Q07912); assay: kinase selectivity profiling; assay type: biochemical; conditions: 10µM ATP, read-out: % inhibition (relative to DMSO)
T2 construct: purchased Reaction Biology Corp
Description: as §1

[4] = biological target: T3, ARK5/NUAK1 (Homo sapiens, UniProt O60285); assay: kinase selectivity profiling; assay type: biochemical; conditions: 10µM ATP, read-out: % inhibition (relative to DMSO)
T3 construct: purchased Reaction Biology Corp
Description: as §1

[5] = biological target: T4, Abl1 (Homo sapiens, UniProt P00519); assay: kinase selectivity profiling; assay type: biochemical; conditions: 10µM ATP, read-out: % inhibition (relative to DMSO)
T4 construct: purchased Reaction Biology Corp
Description: as §1

[6] = biological target: T5, CDK7/cyclin H (Homo sapiens, UniProt P50613); assay: kinase selectivity profiling; assay type: biochemical; conditions: 10µM ATP, read-out: % inhibition (relative to DMSO)
T5 construct: purchased Reaction Biology Corp
Description: as §1

[7] = biological target: T6, CDK8/cyclin C (Homo sapiens, UniProt P49336); assay: kinase selectivity profiling; assay type: biochemical; conditions: 10µM ATP, read-out: % inhibition (relative to DMSO)
T6 construct: purchased Reaction Biology Corp
Description: as §1

[8] = biological target: T7, CDK9/cyclin T2 (Homo sapiens, UniProt P50750); assay: kinase selectivity profiling; assay type: biochemical; conditions: 10µM ATP, read-out: % inhibition (relative to DMSO)
T7 construct: purchased Reaction Biology Corp
Description: as §1

[9] = biological target: T8, CK1d (Homo sapiens, UniProt P48730); assay: kinase selectivity profiling; assay type: biochemical; conditions: 10µM ATP, read-out: % inhibition (relative to DMSO)
T8 construct: purchased Reaction Biology Corp
Description: as §1

[10] = biological target: T9, ERBB4/HER4 (Homo sapiens, UniProt Q15303); assay: kinase selectivity profiling; assay type: biochemical; conditions: 10µM ATP, read-out: % inhibition (relative to DMSO)
T9 construct: purchased Reaction Biology Corp
Description: as §1

[11] = biological target: T10, FES/FPS (Homo sapiens, UniProt P07332); assay: kinase selectivity profiling; assay type: biochemical; conditions: 10µM ATP, read-out: % inhibition (relative to DMSO)
T10 construct: purchased Reaction Biology Corp
Description: as §1

[12] = biological target: T11, IRR/INSRR (Homo sapiens, UniProt P14616); assay: kinase selectivity profiling; assay type: biochemical; conditions: 10µM ATP, read-out: % inhibition (relative to DMSO)
T11 construct: purchased Reaction Biology Corp
Description: as §1

[13] = biological target: T12, MAPKAPK5/PRAK (Homo sapiens, UniProt Q8IW41); assay: kinase selectivity profiling; assay type: biochemical; conditions: 10µM ATP, read-out: % inhibition (relative to DMSO)
T12 construct: purchased Reaction Biology Corp
Description: as §1

[14] = biological target: T13, MASTL (Homo sapiens, UniProt Q96GX5); assay: kinase selectivity profiling; assay type: biochemical; conditions: 10µM ATP, read-out: % inhibition (relative to DMSO)
T13 construct: purchased Reaction Biology Corp
Description: as §1

[15] = biological target: T14, MEK5 (Homo sapiens, UniProt Q13163); assay: kinase selectivity profiling; assay type: biochemical; conditions: 10µM ATP, read-out: % inhibition (relative to DMSO)
T14 construct: purchased Reaction Biology Corp
Description: as §1

[16] = biological target: T15, MKK4 (Homo sapiens, UniProt P45985); assay: kinase selectivity profiling; assay type: biochemical; conditions: 10µM ATP, read-out: % inhibition (relative to DMSO)
T15 construct: purchased Reaction Biology Corp
Description: as §1

[17] = biological target: T16, NEK5 (Homo sapiens, UniProt Q6P3R8); assay: kinase selectivity profiling; assay type: biochemical; conditions: 10µM ATP, read-out: % inhibition (relative to DMSO)
T16 construct: purchased Reaction Biology Corp
T16 sequence (Q6P3R8 whole entry): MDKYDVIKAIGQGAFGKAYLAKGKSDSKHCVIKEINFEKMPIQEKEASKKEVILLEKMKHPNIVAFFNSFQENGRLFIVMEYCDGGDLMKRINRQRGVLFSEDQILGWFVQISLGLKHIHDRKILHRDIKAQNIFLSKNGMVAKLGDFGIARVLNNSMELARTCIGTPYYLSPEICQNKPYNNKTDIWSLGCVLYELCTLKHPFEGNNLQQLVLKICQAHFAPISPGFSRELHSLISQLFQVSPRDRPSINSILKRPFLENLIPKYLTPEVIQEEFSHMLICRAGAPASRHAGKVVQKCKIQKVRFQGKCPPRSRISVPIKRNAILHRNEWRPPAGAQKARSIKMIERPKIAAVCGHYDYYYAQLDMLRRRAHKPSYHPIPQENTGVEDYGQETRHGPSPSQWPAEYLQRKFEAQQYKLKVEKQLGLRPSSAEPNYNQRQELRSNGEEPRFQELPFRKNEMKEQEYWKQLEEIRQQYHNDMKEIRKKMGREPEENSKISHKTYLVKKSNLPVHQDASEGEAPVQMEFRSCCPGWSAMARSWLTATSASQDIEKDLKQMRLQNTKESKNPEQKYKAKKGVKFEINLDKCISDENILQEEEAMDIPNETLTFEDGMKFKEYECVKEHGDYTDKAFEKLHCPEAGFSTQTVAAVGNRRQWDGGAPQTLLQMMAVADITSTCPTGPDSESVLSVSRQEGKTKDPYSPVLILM
Description: as §1

[18] = biological target: T17, PAK2 (Homo sapiens, UniProt Q13177); assay: kinase selectivity profiling; assay type: biochemical; conditions: 10µM ATP, read-out: % inhibition (relative to DMSO)
T17 construct: purchased Reaction Biology Corp
T17 sequence (Q13177 whole entry): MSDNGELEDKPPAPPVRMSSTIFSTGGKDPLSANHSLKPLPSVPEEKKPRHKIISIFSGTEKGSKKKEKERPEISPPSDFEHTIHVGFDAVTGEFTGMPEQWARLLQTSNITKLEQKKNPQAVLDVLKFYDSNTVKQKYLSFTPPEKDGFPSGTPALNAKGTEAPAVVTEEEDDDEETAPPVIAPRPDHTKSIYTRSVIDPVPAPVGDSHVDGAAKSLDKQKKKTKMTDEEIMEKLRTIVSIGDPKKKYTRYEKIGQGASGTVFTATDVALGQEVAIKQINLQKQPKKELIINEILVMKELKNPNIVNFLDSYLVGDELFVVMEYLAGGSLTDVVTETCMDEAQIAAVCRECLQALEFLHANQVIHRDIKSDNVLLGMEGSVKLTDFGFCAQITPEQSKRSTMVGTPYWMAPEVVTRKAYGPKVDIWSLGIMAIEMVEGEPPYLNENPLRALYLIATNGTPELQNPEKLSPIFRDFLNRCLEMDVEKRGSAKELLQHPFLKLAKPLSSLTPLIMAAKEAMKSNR
Description: as §1

[19] = biological target: T18, PDGFRb (Homo sapiens, UniProt P09619); assay: kinase selectivity profiling; assay type: biochemical; conditions: 10µM ATP, read-out: % inhibition (relative to DMSO)
T18 construct: purchased Reaction Biology Corp
Description: as §1

[20] = biological target: T19, PLK1 (Homo sapiens, UniProt P53350); assay: kinase selectivity profiling; assay type: biochemical; conditions: 10µM ATP, read-out: % inhibition (relative to DMSO)
T19 construct: purchased Reaction Biology Corp
Description: as §1

[21] = biological target: T20, RIPK3 (Homo sapiens, UniProt Q9Y572); assay: kinase selectivity profiling; assay type: biochemical; conditions: 10µM ATP, read-out: % inhibition (relative to DMSO)
T20 construct: purchased Reaction Biology Corp
Description: as §1

[22] = biological target: T21, RON/MST1R (Homo sapiens, UniProt Q04912); assay: kinase selectivity profiling; assay type: biochemical; conditions: 10µM ATP, read-out: % inhibition (relative to DMSO)
T21 construct: purchased Reaction Biology Corp
Description: as §1

[23] = biological target: T22, SGK2 (Homo sapiens, UniProt Q9HBY8); assay: kinase selectivity profiling; assay type: biochemical; conditions: 10µM ATP, read-out: % inhibition (relative to DMSO)
T22 construct: purchased Reaction Biology Corp
Description: as §1

[24] = biological target: T23, SIK1 (Homo sapiens, UniProt P57059); assay: kinase selectivity profiling; assay type: biochemical; conditions: 10µM ATP, read-out: % inhibition (relative to DMSO)
T23 construct: purchased Reaction Biology Corp
Description: as §1

[25] = biological target: T24, SIK3 (Homo sapiens, UniProt Q9Y2K2); assay: kinase selectivity profiling; assay type: biochemical; conditions: 10µM ATP, read-out: % inhibition (relative to DMSO)
T24 construct: purchased Reaction Biology Corp
T24 sequence (Q9Y2K2 whole entry): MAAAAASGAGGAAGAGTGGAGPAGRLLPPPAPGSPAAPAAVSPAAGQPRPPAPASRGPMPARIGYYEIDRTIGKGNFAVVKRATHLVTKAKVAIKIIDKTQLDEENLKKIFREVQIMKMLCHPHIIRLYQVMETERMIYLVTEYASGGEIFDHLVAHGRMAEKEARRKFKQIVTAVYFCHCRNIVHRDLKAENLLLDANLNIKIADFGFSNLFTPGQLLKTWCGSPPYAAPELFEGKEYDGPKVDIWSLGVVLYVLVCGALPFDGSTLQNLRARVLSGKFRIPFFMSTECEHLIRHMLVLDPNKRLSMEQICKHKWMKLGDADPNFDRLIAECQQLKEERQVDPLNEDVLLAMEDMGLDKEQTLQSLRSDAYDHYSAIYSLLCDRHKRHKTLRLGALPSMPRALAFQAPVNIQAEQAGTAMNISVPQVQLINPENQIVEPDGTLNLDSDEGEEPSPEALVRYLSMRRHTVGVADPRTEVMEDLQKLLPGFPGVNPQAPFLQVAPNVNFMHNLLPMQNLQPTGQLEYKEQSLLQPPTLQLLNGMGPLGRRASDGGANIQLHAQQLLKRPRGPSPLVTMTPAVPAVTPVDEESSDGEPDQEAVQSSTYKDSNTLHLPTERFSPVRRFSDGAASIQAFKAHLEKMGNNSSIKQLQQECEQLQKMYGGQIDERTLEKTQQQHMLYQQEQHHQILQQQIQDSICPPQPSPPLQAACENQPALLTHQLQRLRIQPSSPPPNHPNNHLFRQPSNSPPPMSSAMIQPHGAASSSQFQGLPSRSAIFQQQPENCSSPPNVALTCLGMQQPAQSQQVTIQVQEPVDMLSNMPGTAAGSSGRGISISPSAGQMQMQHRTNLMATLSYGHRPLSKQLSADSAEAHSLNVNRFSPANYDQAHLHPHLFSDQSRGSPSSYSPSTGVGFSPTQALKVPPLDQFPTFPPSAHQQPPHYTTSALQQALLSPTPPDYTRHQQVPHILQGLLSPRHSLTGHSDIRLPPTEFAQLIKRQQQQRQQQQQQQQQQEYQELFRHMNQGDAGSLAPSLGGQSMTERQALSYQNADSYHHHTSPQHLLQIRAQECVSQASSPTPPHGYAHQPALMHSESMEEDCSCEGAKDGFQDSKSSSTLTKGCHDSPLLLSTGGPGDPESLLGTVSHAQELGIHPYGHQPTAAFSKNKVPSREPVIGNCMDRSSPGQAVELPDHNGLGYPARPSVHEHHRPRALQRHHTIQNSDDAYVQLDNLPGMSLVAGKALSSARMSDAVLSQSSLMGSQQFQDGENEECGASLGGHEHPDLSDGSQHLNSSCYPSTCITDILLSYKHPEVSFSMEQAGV
Description: as §1

[26] = biological target: T25, SRMS (Homo sapiens, UniProt Q9H3Y6); assay: kinase selectivity profiling; assay type: biochemical; conditions: 10µM ATP, read-out: % inhibition (relative to DMSO)
T25 construct: purchased Reaction Biology Corp
T25 sequence (Q9H3Y6 whole entry): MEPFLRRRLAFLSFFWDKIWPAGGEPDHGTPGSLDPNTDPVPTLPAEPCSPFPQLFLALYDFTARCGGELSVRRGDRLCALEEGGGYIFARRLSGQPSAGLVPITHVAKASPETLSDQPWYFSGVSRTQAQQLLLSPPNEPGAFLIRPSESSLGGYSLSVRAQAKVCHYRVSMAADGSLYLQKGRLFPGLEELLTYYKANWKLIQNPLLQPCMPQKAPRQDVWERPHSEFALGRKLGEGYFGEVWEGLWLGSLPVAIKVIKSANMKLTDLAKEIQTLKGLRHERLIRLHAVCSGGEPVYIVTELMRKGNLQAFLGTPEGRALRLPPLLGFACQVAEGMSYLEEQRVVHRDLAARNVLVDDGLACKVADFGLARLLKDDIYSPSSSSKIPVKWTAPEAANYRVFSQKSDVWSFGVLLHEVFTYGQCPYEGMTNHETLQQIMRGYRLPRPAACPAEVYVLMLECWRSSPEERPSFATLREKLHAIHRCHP
Description: as §1

[27] = biological target: T26, STK32C/YANK3 (Homo sapiens, UniProt Q86UX6); assay: kinase selectivity profiling; assay type: biochemical; conditions: 10µM ATP, read-out: % inhibition (relative to DMSO)
T26 construct: purchased Reaction Biology Corp
T26 sequence (Q86UX6 whole entry): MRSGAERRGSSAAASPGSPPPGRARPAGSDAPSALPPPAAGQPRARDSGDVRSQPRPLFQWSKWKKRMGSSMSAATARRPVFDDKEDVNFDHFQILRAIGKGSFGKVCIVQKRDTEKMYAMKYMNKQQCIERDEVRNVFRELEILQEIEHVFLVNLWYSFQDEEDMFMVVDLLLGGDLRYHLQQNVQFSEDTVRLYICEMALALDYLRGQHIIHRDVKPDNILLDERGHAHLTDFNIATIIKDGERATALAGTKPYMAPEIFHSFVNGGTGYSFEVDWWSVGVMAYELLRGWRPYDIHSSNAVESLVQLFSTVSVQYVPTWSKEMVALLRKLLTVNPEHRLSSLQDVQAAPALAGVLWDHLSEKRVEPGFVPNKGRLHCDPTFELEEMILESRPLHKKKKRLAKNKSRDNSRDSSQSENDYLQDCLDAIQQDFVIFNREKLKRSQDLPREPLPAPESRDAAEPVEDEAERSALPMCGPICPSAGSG
Description: as §1

[28] = biological target: T27, TSSK2 (Homo sapiens, UniProt Q96PF2); assay: kinase selectivity profiling; assay type: biochemical; conditions: 10µM ATP, read-out: % inhibition (relative to DMSO)
T27 construct: purchased Reaction Biology Corp
T27 sequence (Q96PF2 whole entry): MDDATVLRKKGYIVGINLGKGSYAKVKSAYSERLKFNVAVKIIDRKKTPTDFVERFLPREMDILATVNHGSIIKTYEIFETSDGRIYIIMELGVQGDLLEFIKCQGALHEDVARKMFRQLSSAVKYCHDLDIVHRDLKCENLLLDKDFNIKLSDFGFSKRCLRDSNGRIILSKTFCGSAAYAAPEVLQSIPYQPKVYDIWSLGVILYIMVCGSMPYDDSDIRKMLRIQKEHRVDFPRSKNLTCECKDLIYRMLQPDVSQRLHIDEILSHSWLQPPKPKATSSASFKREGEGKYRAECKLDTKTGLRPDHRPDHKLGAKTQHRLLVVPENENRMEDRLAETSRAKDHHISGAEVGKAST
Description: as §1

[29] = biological target: T28, p38a/MAPK14 (Homo sapiens, UniProt Q16539); assay: kinase selectivity profiling; assay type: biochemical; conditions: 10µM ATP, read-out: % inhibition (relative to DMSO)
T28 construct: purchased Reaction Biology Corp
T28 sequence (Q16539 whole entry): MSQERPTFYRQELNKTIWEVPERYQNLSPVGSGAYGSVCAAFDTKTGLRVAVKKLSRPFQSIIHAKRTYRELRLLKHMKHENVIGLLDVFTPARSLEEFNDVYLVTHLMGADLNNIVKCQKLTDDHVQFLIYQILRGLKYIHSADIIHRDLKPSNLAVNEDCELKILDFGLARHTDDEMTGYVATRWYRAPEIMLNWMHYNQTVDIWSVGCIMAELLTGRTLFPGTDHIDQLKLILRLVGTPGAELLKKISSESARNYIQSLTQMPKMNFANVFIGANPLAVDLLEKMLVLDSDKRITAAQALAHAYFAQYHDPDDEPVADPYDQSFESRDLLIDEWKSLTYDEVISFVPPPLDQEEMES
Description: as §1

T1 sequence (P06239 whole entry): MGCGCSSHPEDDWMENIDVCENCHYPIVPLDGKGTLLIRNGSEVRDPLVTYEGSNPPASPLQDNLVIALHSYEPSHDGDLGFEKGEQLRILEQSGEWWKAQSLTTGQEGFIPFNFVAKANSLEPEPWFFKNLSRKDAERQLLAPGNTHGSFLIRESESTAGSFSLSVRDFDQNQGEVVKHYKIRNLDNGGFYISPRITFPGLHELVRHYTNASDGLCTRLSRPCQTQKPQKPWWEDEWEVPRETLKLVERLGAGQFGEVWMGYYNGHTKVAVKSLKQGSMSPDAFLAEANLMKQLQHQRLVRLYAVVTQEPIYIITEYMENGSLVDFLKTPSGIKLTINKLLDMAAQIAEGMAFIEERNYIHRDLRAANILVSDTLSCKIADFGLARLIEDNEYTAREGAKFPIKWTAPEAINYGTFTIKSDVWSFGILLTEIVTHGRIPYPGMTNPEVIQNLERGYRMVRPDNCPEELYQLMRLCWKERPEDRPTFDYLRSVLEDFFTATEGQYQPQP

Compound: Cc1ccc(Nc2ncc3c(n2)N(C)C(=O)N(c2cc(C(=O)N[C@H](C(=O)N4CCC[C@H]4C(=O)NC(C)(C)C(=O)N[C@@H](CC(C)C)C(=O)N(C)C)C(C)C)ccc2C)C3)cn1 [7a, (S)-N-(1-(((S)-1-(dimethylamino)-4-methyl-1-oxopentan-2-yl)amino)-2-methyl-1-oxopropan-2-yl)-1-((4-methyl-3-(1-methyl-7-((6-methylpyridin-3-yl)amino)-2-oxo-1,4-dihydropyrimido[4,5-d]pyrimidin-3(2H)-yl)benzoyl)-L-valyl)pyrrolidine-2-carboxamide] (X1-VP[Aib]L-NMe2)
- IC50 ([1]; ATP conc. 14 µM (Km)): 190 nM
- IC50 ([1]; ATP conc. 1 mM): 21000 nM
- mode of inhibition ([1]; IC50 at Km vs 1 mM ATP): ATP competitive kinase inhibitors
- phosphorylated Lck levels at tyrosine 394 [2]: markedly reduced the phosphorylated Lck levels at tyrosine 394 residue in a concentration-dependent manner
- inhibition at 1 µM [3]: 0%
- inhibition at 1 µM [4]: 9%
- inhibition at 1 µM [5]: 63%
- inhibition at 1 µM [6]: 3%
- inhibition at 1 µM [7]: 2%
- inhibition at 1 µM [8]: 0%
- inhibition at 1 µM [9]: 11%
- inhibition at 1 µM [10]: 53%
- inhibition at 1 µM [11]: 18%
- inhibition at 1 µM [12]: 5%
- inhibition at 1 µM [13]: 8%
- inhibition at 1 µM [14]: 7%
- inhibition at 1 µM [15]: 50%
- inhibition at 1 µM [16]: 2%
- inhibition at 1 µM [17]: 0%
- inhibition at 1 µM [18]: 0%
- inhibition at 1 µM [19]: 48%
- inhibition at 1 µM [20]: 0%
- inhibition at 1 µM [21]: 0%
- inhibition at 1 µM [22]: 27%
- inhibition at 1 µM [23]: 0%
- inhibition at 1 µM [24]: 10%
- inhibition at 1 µM [25]: 12%
- inhibition at 1 µM [26]: 4%
- inhibition at 1 µM [27]: 2%
- inhibition at 1 µM [28]: 0%
- inhibition at 1 µM [29]: 15%
